# Assays:
# [1] = molecular target: T1, MRP2 (Homo sapiens, UniProt Q92887); test: CDFDA transport assay; type: cell-based; details: 10 μM CDFDA in upper layer flow path, 3 hours, co-culturing with HuCCT1 cells versus PHH only
# T1 construct: endogenous in cells; host or cells: primary human hepatocytes (PHH), alone or co-cultured with HuCCT1 cells, in the microfluidic device
# Description: 10 μM of 5(6)-carboxy-2′,7′-dichlorofluorescein diacetate (CDFDA) was added to the upper layer flow path. After 3 hours, the culture supernatant from the lower layer flow path was recovered. The fluorescence intensity of 5(6)-carboxy-2′,7′-dichlorofluorescein (CDF) in the recovered culture supernatant, which is a metabolite of CDFDA, was measured.
# Subsequently, 5(6)-carboxy-2′,7′-dichlorofluorescein diacetate (CDFDA) was added to the upper layer flow path of the intrahepatic bile duct chip, and after 3 hours, the fluorescence of the culture medium in the lower layer flow path was measured. In living cells, CDFDA is hydrolyzed to 5(6)-carboxy-2′,7′-dichlorofluorescein (CDF). CDF is a substrate of MRP2, which is a transporter. Therefore, the CDF transported to the lower layer flow path can be quantified by measuring the fluorescence intensity.
# FIG. 13 is a graph showing results of measuring the fluorescence intensity.
# [2] = system: CYP3A4; test: Measurement of CYP activity using CYP substrates in PHH (MDZ to 1OH-MDZ); type: in vitro ADME, human
# Description: The LC-MS/MS analysis was carried out to measure the activity of CYP. Prior to a CYP substrate treatment, PHH was cultured in DMEM containing 10 mM HEPES for 30 minutes. Subsequently, the PHH was cultured in a culture medium containing 5 μM MDZ (the metabolite thereof is 1OH-MDZ), 50 μM MPHT (the metabolite thereof is 4OH-MPHT), 5 μM DIC (the metabolite thereof is 4OH-DIC), 10 μM BUF (the metabolite thereof is 1OH-BUF), or 50 μM PHE (the metabolite thereof is APAP). The supernatant was recovered 1, 2, and 4 hours after the treatment with the substrate. At the time of recovering the supernatant, an equal amount of a culture medium containing the substrate was added.
# The recovered supernatant was mixed with acetonitrile (FUJIFILM Wako Pure Chemical Corporation) containing an equal volume of 5 μM propranolol (internal standard). The specimen was filtered through a Cosmonice Filter W (Nacalai Tesque, Inc.) having a pore size of 0.45 μm, the supernatant was subsequently analyzed by LC-MS/MS, and the concentration of the metabolite was measured based on the standard curve. The LC-MS/MS analysis was carried out using LCMS-8040 (Shimadzu Corporation).
# Subsequently, the drug metabolic activities of the PHH cultured in the PDMS device and the PS plate were compared. First, PHH was treated with each of MDZ, DIC, PHE, BUF, and MPHT, which are substrates of CYP3A4, CYP2C9, CYP1A2, CYP2D6, and CYP2C19. Subsequently, after 1, 2, and 4 hours, the amounts of the metabolites (OH-MDZ, 4OH-DIC, APAP, 1OH-BUF, and 4OH-MPHT) generated in the culture medium were measured by LC-MS/MS.
# [3] = Drug absorption in microfluidic device without PHH (LC-MS/MS); type: physicochemical; details: for concentration during the observation period: 1 to 4 hours, microfluidic device; for Drug absorption rate: Microfluidic device/Polystyrene plate; for Drug absorption rate / concentration as % of initial concentration: without PHH; for absorption in the microfluidic device: PDMS device without PHH; for concentration as % of initial concentration: 1 hour after the injection into the microfluidic device
# Description: A culture medium containing MDZ, DIC, PHE, BUF, or MPHT was added to a microfluidic device or a polystyrene plate. Subsequently, 1, 2, and 4 hours after the addition of the drugs, the amounts of these drugs were quantified with LC-MS/MS.
# A culture medium containing APAP (a CYP1A2 metabolite), 1OH-MDZ (a CYP3A4 metabolite), 4OH-DIC (a CYP2C9 metabolite), 4OH-MPHT (a CYP2C19 metabolite), or 1OH-BUF (a CYP2D6 metabolite) was added to a microfluidic device or a polystyrene plate. Subsequently, 1, 2, and 4 hours after the addition of the drugs, the amounts of these drugs were quantified with LC-MS/MS.
# Subsequently, it was examined whether the absorption of the drugs and metabolites could be predicted by the relative physicochemical characteristics between the microfluidic device and the polystyrene plate. The drug absorption rate between the microfluidic device and the polystyrene plate was calculated. Subsequently, a correlation coefficient R^2 value between the drug absorption rate and the physicochemical characteristics (DiffCoef, M Log P, S+Log P, S+log D, MWt, and tPSA) of the drugs was calculated.
# [4] = system: CYP3A; type: in vitro ADME, human
# Description: The supernatant was recovered 1, 2, and 4 hours after the treatment with the substrate. At the time of recovering the supernatant, an equal volume of a culture medium containing the substrate was added.
# A fraction (20 μL) of the recovered supernatant was mixed with 20 μL of Milli-Q water and 120 μL of acetonitrile containing […] 10 nM of an internal standard (fluvastatin, FUJIFILM Wako Pure Chemical Corporation). After centrifugation, 100 μL of the supernatant was analyzed by LC-MS/MS.
# Chromatography was carried out using a Nexera X2 LC system (Shimadzu Corporation), and quantification was carried out using QTRAP 5500+ (AB Sciex LLC).
# A mass spectrometer was set to an MRM mode and operated with an electrospray ionization source.
# [5] = system: PHH and the HuCCT1 cells of the intrahepatic bile duct chip; test: Response to bile acid signaling in intrahepatic bile duct chip (quantitative RT-PCR); type: cell-based, human; details: 100 μM CDCA, 72 hours, versus DMSO
# Description: In addition, the response to bile acid signaling in PHH was examined. Chenodeoxycholic acid (CDCA) is one of the major bile acids. […] In addition, a specimen treated with dimethyl sulfoxide (DMSO) instead of CDCA was also prepared for comparison. Subsequently, the gene expression levels of BSEP, NTCP, and CYP7A1 were measured according to quantitative RT-PCR. […] In FIG. 9, the vertical axis indicates a relative value of the expression level of each gene in a case where the expression level in a case where DMSO has been treated is set to 1. […] All data are indicated as average value±standard deviation (n=3).
# [6] = system: FXR; test: Change in bile acid signaling upon drug exposure in PHH (quantitative RT-PCR); details: 100 μM CDCA and 2.5 μM GW4046, 72 hours, PHH in microfluidic device or polystyrene plate
# Description: Subsequently, a change in bile acid signaling upon drug exposure was examined.
# Subsequently, the gene expression levels of BSEP and CYP7A1 were measured by quantitative RT-PCR.
# [7] = system: CYP1A2; test: CYP induction test (quantitative RT-PCR) in PHH; type: cell-based, human; details: 50 μM omeprazole, 48 hours, versus DMSO
# Description: PHH was treated with 50 μM omeprazole, 500 μM phenobarbital, or 20 μM rifampicin (all of which are from FUJIFILM Wako Pure Chemical Corporation) for 48 hours. Each of these drugs is known to induce CYP1A2, 2B6, and 3A4. In order to measure the inducibility of CYP1A2, 2B6, and 3A4, the expression level of CYP was measured by quantitative RT-PCR. The expression level of the target gene was standardized with the expression level of GAPDH. The inducibility was calculated as a change in expression level in terms of folds in cells treated with DMSO.
# PHH was seeded in each of a microfluidic device and a polystyrene plate and cultured for 24 hours. Subsequently, the cultured PHH was treated with 50 μM omeprazole, 500 μM phenobarbital, or […] rifampicin for 48 hours. […] Subsequently, the expression level of each CYP gene was measured by quantitative RT-PCR. Cells treated with DMSO (final concentration: 0.1%) were used as a control.
# [8] = system: GFP-expressing HuCCT1 cells; test: Formation of tubular bile duct-like structure in microfluidic device; type: cell-based, human; details: 10 ng/mL in culture medium, 4 days, lower layer flow path
# Description: GFP-expressing HuCCT1 cells were seeded in the lower layer flow path of the microfluidic device in the presence or absence of 10 ng/mL of DLL1 or DLL4, and after 4 days, a cross-sectional image of the microfluidic device was acquired.
# [9] = Measurement of active TGF-β1 in culture supernatant (ELISA), adsorption to culture vessel; details: 100 ng/mL TGF-β1, 48 hours
# Description: PHH was treated with 100 ng/mL of TGF-β1 for 48 hours. In order to quantify active TGF-β1 in the supernatant, the culture medium was recovered and analyzed according to the instruction manual using a TGF beta-1 Human ELISA Kit (BMS249-4, Thermo Fisher Scientific, Inc.). The amount of active TGF-β1 was calculated based on each standard.
# (§1) Subsequently, the cellular response of the PHH cultured in the microfluidic device and the polystyrene plate to a recombinant protein was examined. Specifically, PHH was treated with transforming growth factor-β1 (TGF-β1), which is one of the causative factors of hepatic fibrosis. The PHH was exposed to 100 ng/mL TGF-β1 for 48 hours. Subsequently, the amount of TGF-β1 in the cell culture supernatant was measured according to ELISA.
# FIG. 35 is a graph showing the results of ELISA. In FIG. 35, “top” indicates the results for the upper layer flow path, and “bottom” indicates the results for the lower layer flow path.
# [10] = system: PHH; test: Fibrosis marker gene expression in PHH treated with TGF-β1 (quantitative RT-PCR); type: cell-based, human
# Description: as §1
# Subsequently, the gene expression levels of ACTA2, COL1A1, and TIMP1, which are fibrosis markers, were measured by quantitative RT-PCR.
# In FIG. 36, the vertical axis indicates a relative value in a case where the gene expression level in the cells (control) treated with phosphate buffered saline (PBS) is set to 1. […] The data is indicated as average value±standard deviation (n=3).
# Subsequently, the gene expression level of TGF-β type II receptor (TGFBR2) was measured. […] Subsequently, the gene expression level of TGFBR2 was measured by quantitative RT-PCR.
# [11] = microfluidic device versus polystyrene plate
# [12] = 100 ng/mL TGF-β1, 48 hours, microfluidic device or polystyrene plate, versus PBS
# T1 sequence (Q92887 whole entry): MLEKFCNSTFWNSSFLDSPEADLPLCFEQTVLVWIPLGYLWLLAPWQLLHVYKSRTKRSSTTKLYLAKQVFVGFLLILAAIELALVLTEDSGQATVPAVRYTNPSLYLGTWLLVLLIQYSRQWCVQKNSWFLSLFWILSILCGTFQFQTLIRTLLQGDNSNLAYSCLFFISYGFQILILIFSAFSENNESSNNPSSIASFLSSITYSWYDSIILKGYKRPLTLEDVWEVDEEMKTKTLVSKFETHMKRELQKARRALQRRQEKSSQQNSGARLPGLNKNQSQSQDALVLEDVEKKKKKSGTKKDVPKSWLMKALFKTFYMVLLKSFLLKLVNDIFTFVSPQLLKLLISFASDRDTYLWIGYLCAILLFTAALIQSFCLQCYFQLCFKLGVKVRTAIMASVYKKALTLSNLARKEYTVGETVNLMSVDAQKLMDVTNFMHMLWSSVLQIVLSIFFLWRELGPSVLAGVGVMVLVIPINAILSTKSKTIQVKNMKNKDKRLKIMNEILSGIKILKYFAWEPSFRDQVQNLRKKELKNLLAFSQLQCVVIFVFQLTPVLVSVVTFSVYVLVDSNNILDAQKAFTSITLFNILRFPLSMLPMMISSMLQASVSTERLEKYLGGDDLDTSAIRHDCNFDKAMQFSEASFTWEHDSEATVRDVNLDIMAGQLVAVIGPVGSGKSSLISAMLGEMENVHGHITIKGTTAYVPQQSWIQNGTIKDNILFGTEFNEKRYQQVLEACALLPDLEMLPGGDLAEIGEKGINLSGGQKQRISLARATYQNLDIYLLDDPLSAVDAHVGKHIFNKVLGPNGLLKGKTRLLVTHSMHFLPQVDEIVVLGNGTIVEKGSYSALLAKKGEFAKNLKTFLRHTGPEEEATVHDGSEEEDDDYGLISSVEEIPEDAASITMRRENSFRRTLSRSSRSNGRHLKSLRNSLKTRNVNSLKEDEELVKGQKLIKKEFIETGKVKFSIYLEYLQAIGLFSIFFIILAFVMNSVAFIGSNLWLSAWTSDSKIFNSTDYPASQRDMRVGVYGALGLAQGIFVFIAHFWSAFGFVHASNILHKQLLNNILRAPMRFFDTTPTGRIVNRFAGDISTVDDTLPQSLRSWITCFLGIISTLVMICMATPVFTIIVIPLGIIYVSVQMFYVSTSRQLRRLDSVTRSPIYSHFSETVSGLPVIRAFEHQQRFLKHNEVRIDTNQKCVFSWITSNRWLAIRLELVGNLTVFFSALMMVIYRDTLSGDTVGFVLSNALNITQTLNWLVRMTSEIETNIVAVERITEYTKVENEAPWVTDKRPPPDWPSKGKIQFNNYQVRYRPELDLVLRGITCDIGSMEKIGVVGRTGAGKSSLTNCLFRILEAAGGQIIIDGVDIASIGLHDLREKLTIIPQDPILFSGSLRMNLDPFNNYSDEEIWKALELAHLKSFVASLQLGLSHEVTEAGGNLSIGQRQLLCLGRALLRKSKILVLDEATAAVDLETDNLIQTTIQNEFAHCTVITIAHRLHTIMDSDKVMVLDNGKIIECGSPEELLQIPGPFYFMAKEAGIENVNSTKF
compound,measurement,setting,value
"5(6)-carboxy-2′,7′-dichlorofluorescein [CDF]",amount of the CDF transported to the lower layer flow path,[1],increases
OCc1ncc2n1-c1ccc(Cl)cc1C(c1ccccc1F)=NC2 [1-hydroxymidazolam],"formation rate of metabolite, microfluidic device versus polystyrene plate","[2]; PHH, 5 μM MDZ",similar
same,concentration during the observation period,[3],constant
same,Drug absorption rate,[3],1.714
same,absorption in the microfluidic device,[3],also absorbed in the PDMS device
"CC(C)c1c(C(=O)Nc2ccccc2O)c(-c2ccccc2)c(-c2ccc(F)cc2)n1CCC(O)CC(O)CC(=O)O (stereo not shown) [2OH-ATV, 2-hydroxyatorvastatin]",formation of 2OH-ATV,"[4]; PHH, 1 μM ATV, 1, 2 and 4 hours",observed in a time-dependent manner
same,formation rate of 2OH-ATV in PHH cultured in the microfluidic device,[4]; [11],partially reduced
"CCc1cccc2cc(C(O)CNC(C)(C)C)oc12 (stereo not shown) [Bufuralol, bufuralol]",concentration during the observation period,[3],constant
same,concentration as % of initial concentration,[3],30%
same,Drug absorption rate,[3],3.327
same,absorption in the microfluidic device,[3],absorbed in the microfluidic device
"C[C@H](CCC(=O)O)[C@H]1CC[C@H]2[C@@H]3[C@H](O)C[C@@H]4C[C@H](O)CC[C@]4(C)[C@H]3CC[C@]12C [CDCA, chenodeoxycholic acid]",BSEP gene expression level,[5],increased
same,CYP7A1 gene expression level,[5],decreased
same,NTCP gene expression level,[5],increased
same,CYP7A1 gene expression level,[6],decreased only in the microfluidic device
"O=C(O)Cc1ccccc1Nc1c(Cl)cccc1Cl [Diclofenac, diclofenac]",Drug absorption rate,[3],1.043
CC(C)c1onc(-c2c(Cl)cccc2Cl)c1COc1ccc(/C=C/c2cccc(C(=O)O)c2)c(Cl)c1 [GW4046],BSEP gene expression level,[6],increased in both the PHH cultured in the microfluidic device and the PHH cultured on the polystyrene plate
"Cc1ncc2n1-c1ccc(Cl)cc1C(c1ccccc1F)=NC2 [Midazolam, midazolam]","amount of the metabolite, microfluidic device versus polystyrene plate","[2]; PHH, 5 μM MDZ",smaller
same,clearance (rate of drug metabolite formation divided by concentration of the drug in the culture medium),[2]; [11],no difference
same,concentration during the observation period,[3],constant
same,concentration as % of initial concentration,[3],9.5%
same,Drug absorption rate,[3],10.41
same,absorption in the microfluidic device,[3],absorbed in the microfluidic device
"CCOc1ccc(NC(C)=O)cc1 [Phenacetin, phenacetin]",Drug absorption rate,[3],0.9569
CC[C@@]1(c2ccccc2)NC(=O)N(C)C1=O [S-mephenytoin],Drug absorption rate,[3],0.9897
CCCC(C(=O)OCCN(CC)CC)(c1ccccc1)c1ccccc1 [SKF-525A],formation of 2OH-ATV on treatment with pan-CYP inhibitor,"[4]; PHH, 100 μM SKF-525A, 1 μM ATV",significantly reduced
COc1ccc2[nH]c([S+]([O-])Cc3ncc(C)c(OC)c3C)nc2c1 (stereo not shown) [omeprazole],CYP1A2 expression level,[7],induced in both the microfluidic device and the polystyrene plate
"DLL4: recombinant human Delta Like Canonical Notch Ligand 4, lumenization factor",formation of the tubular bile duct-like structure,[8],accelerates the formation of the tubular bile duct-like structure
"TGF-β1: recombinant protein, one of the causative factors of hepatic fibrosis",adsorption of TGF-β1 to the microfluidic device,[9],has not allowed the adsorption
same,adsorption of TGF-β1 to the polystyrene plate,[9],allowed the adsorption
same,ACTA2 gene expression level,[10]; [12],increased
same,COL1A1 gene expression level,[10]; [12],increased
same,TIMP1 gene expression level,[10]; [12],increased
same,TGFBR2 gene expression level,"[10]; TGF-β1 treatment, PHH in microfluidic device and polystyrene plate",not changed
